In data set [1] the test system is Solid Ehrlich carcinoma (SEC). Briefly: In vivo anti-tumour activity in SEC-bearing mice. Also on record: species or system Swiss albino mice. The settings on record: 6 mg/Kg B.W., IP. As to the method:
(§1) The full methodology of tumour induction, treatments, and blood measurements was carried out according to the described details in the supporting information (SI 5). Moreover, the experimental protocol was approved by the Research Ethics Committee at Suez Canal University (Approval number REC139/2022, Chemistry Department, Faculty of Science, Suez Canal University). […]
SI 5.1. Animals and tumor cell line
Adult female Swiss albino mice purchased from Theodor Bilharzia Research Institute, Giza, Egypt, with an average body weight of (18-23) g was used. Mice were housed under constant conditions of 12 h light/dark cycle in a […], with free access to standard laboratory mice food and water.
All procedures related to care and maintenance of the animals were performed according to the international guiding principles for animal research and approved by Faculty of Science, Suez Canal University bioethics and animal ethics committee (Approval number REC-01-2022).
Solid Ehrlich carcinoma (SEC) were got from the National Cancer Institute (Cairo University, Egypt). The tumor cell line was proliferated in mice through serial intraperitoneal (I.P.) transplantation of a volume of 0.2 mL physiological saline contains 1 × 10^6 viable cells for 24 h. SEC cells were collected 7 days after I.P. implantation. The harvested cells were diluted with saline to obtain a concentration of 5 × 10^6 viable SEC cells/mL. A volume of 0.2 mL saline contains 1 × 10^6 SEC cells […]
(§2) that were I.P. implanted into each normal mouse. SEC cells (1 × 10^6 tumor cells/mouse) were implanted subcutaneously into the right thigh of the hind limb.
(§3) The experimental animals were randomly divided into four groups. Group 1 served as the normal saline control. Group 2 served as the SEC control (1 × 10^6 cells/mouse). Group 3 served as the compound-treated group (6 mg/kg B.Wt., I.P.). Group 4 received the standard anticancer drug of […]
survival were recorded daily until the 24th day in both treated and control groups. At the end of experiment, the blood of each group was collected under light anesthesia for estimation of hematological and biochemical assays. The anesthetized animals were then sacrificed for evaluation of the antitumor activity and histopathological examination.
SI 5.2. Antitumor potentiality
It includes tumor volume, weight, and tumor inhibition ration (TIR%). Time interval measurements of tumor volume using digital Vernier caliper (Tricle Brand, Shanghai, China). Measure tumor length and width using clipper and then calculate tumor volume using formulations V = (L x W x W)/2, where V is tumor volume, W is tumor width, L is tumor length. While TIR% was calculated according to the following equation: […]. […]

Data set [2] in a line: Liver enzymes (ALT, AST) in SEC-bearing mice. The format is in vivo, Swiss albino mice. The settings on record: 6 mg/Kg B.W., IP. As to the method: as §1, §2, §3
survival were recorded daily until the 24th day in both treated and control groups. At the end of experiment, the blood of each group was collected under light anesthesia for estimation of hematological and biochemical assays. The anesthetized animals were then sacrificed for evaluation of the antitumor activity and histopathological examination. […]
At the end of the experiment, animals from different groups were sacrificed, and blood samples were collected for determination of liver enzymes ALT, AST levels. Activities of aspartate aminotransferase (AST) and alanine aminotransferase (ALT) were evaluated using commercial kits (ELITech clinical systems, France). […]

Data set [3] concerns leukaemia SR cells. Briefly: Anti-proliferative effect against SR cell line (MTT assay). In kind it is cell-based. The settings on record: Homo sapiens; leukaemia SR cells; unit as in head of Table 3; read-out: Cytotoxicity IC50, SR. As to the method: The anti-proliferative effect of the 5e counterpart against the SR cell line was estimated using the MTT assay protocol.
Depending on the previous results, the cytotoxic activity of the designed candidate 5e was then evaluated against leukaemia SR cells. Doxorubicin was also evaluated as a reference drug.
For orientation: Tetrazolium dyes change colour on reduction, which living cells bring about.

A short description of data set [4]: Cytotoxic effect against normal cell line. The format is cell-based. Particulars: human, normal cell line PSC-800-011; read-out: Cytotoxicity IC50, PSC-800-011. As for the experimental part: Following, the cytotoxic effect of compound 5e against a normal cell line, PSC-800–011, was also assigned to evaluate the selectivity of the compound towards the cancer cell lines. […] However, the selectivity index (SI) of compound 5e was also calculated to confirm its selectivity. It was known that any sample that has an SI value higher than 3 will be considered to have high selectivity.

Molecules are shown by their SMILES.

For the compound `COc1cccc2c1C(=O)c1c(O)c3c(c(O)c1C2=O)C[C@@](O)(C(=O)CO)C[C@@H]3O[C@H]1C[C@H](N)[C@H](O)[C@H](C)O1` [Doxorubicin, reference compound], the Solid tumour mass in data set [1] (SEC control 226 mg) is recorded as 82.3 mg. The Tumour volume in data set [1] (SEC control 80.6 mm^3) is reported as 27.5 mm^3. Besides, in data set [2] (SEC control 65.9 U/L), the ALT is given as 34.8 U/L. For the same compound, the AST in data set [2] (SEC control 71 U/L) is recorded as 35.6 U/L. Further, the IC50 (commonly the concentration that inhibits the measured activity by half) is 3.78 ± 0.14 µM in data set [3] and 12.8 ± 0.79 µM in data set [4].
